Data reported in US12653865B2, “Dual-agonist compound for both GLP-1 and GIP receptors and application thereof” (Jiangsu Hengrui Pharmaceuticals Co., Ltd., priority 2020, dated 2026).
*1 amine or outer side, *2 acyl side, *3 side chain or, on linkers, in order; H or OH if unused. Where a SMILES comes first, the peptide text is derived from it. Side-chain parts run from the residue outwards. [ ]: non-standard residue; d: D form. The star is where a group is joined. C20 diacid = O=C(O)CCCCCCCCCCCCCCCCCCC(=O)*; γGlu = O=C(O)[C@H](CCC(=O)[*:2])N[*:1]; AEEA = NCCOCCOCC(=O)O; Aib = CC(C)(N)C(=O)O

Experiments:
[1] = tested on: DIO mice; test: Food intake ration of diet-induced obese mice; format: in vivo, C57BL/6 mice
Description: (§1) High-fat food-induced obese male C57BL/6 mice (weighing 35-55 g, aged 10-12 weeks, purchased from Shanghai Jiesijie Laboratory Animal Co., Ltd.) were tested. […] According to the experimental design, the body weight of each mouse was measured and recorded on day 0, day 3, day 6 and so on to day 27, the average body weight of each group of mice was calculated, and weight change curves were plotted by taking the body weight on the first day as the standard. At the end, the fat and other visceral organs of each part of the mice were taken out and weighed, and the viscera/brain ratio for fat in each part of each mouse was calculated. The effect of the drug on the fat was determined by comparing the change in the organ/brain ratio for fat of different parts of each group of mice.
The food intake ration of mice in each group was measured daily during the test.

[2] = tested on: db/db mice; test: Glucose metabolism level in db/db mice; format: in vivo, C57BL/KsJ-db/db mice
Description: Each administration group contained 10 db/db mice. According to the experimental design, tail vein blood was collected by needle pricking on days 0, 7, 14, 21 and 28 and determined for fasting blood glucose levels with a glucometer and glucose dipsticks, and the mice were fasted 6 h prior to the blood collection at each time point. Tail vein blood was collected by needle pricking on days 3, 10, 17, 24 and 27 and randomly determined for blood glucose levels with a glucometer. Finally, at the end of the experiment on day 28, all the animals in the administration groups were subjected to 2-5% isoflurane inhalation anesthesia, and 100 μL of EDTA-K2 anticoagulated whole blood was collected through the orbit of each mouse and used for the determination of glycated hemoglobin.

[3] = tested on: diet-induced obese mice; test: Body weight and fat mass in diet-induced obese mice; format: in vivo, C57BL/6 mice; conditions: for rate of change in body weight / viscera/brain ratio for fat mass, Epididymal fat / viscera/brain ratio for fat mass, Inguinal fat / viscera/brain ratio for fat mass, Mesenteric fat / viscera/brain ratio for fat mass, Perirenal fat / viscera/brain ratio for fat mass, Scapular fat / viscera/brain ratio for fat mass, Subcutaneous fat: DIO mice; for viscera/brain ratio for fat mass, Epididymal fat / viscera/brain ratio for fat mass, Inguinal fat / viscera/brain ratio for fat mass, Mesenteric fat / viscera/brain ratio for fat mass, Perirenal fat / viscera/brain ratio for fat mass, Scapular fat / viscera/brain ratio for fat mass, Subcutaneous fat: end of study
Description: as §1

CC[C@H](C)[C@H](NC(=O)[C@H](CCCCN)NC(=O)[C@H](CCC(=O)O)NC(=O)[C@H](CCCCNC(=O)COCCOCCNC(=O)COCCOCCNC(=O)CC[C@H](NC(=O)CCCCCCCCCCCCCCCCCCC(=O)O)C(=O)O)NC(=O)[C@H](Cc1ccc(O)cc1)NC(=O)[C@@H](NC(=O)[C@H](CO)NC(=O)[C@H](Cc1ccc(O)cc1)NC(=O)[C@H](CC(=O)O)NC(=O)[C@H](CO)NC(=O)[C@@H](NC(=O)[C@H](Cc1ccccc1)NC(=O)[C@@H](NC(=O)CNC(=O)[C@H](CCC(=O)O)NC(=O)C(C)(C)NC(=O)[C@@H](N)Cc1ccc(O)cc1)[C@@H](C)O)[C@@H](C)O)[C@@H](C)CC)C(=O)N[C@@H](C)C(=O)N[C@@H](C)C(=O)N[C@@H](CCC(N)=O)C(=O)N[C@@H](CCC(=O)O)C(=O)N[C@@H](Cc1ccccc1)C(=O)N[C@H](C(=O)N[C@@H](CC(N)=O)C(=O)N[C@@H](Cc1c[nH]c2ccccc12)C(=O)N[C@@H](CC(C)C)C(=O)N[C@@H](CC(C)C)C(=O)N[C@@H](C)C(=O)NCC(=O)NCC(=O)N1CCC[C@H]1C(=O)N[C@@H](CO)C(=O)N[C@@H](CO)C(=O)NCC(=O)N[C@@H](C)C(=O)N1CCC[C@H]1C(=O)N1CCC[C@H]1C(=O)N1CCC[C@H]1C(=O)N[C@@H](CO)C(N)=O)C(C)C [Compound 18#] (H-Y[Aib]EGTFTSDYSIYK([AEEA-AEEA-γGlu-C20 diacid])EKIAAQEFVNWLLAGGPSSGAPPPS-NH2)
daily food intake ration ([1]; 3 nmol/kg sc, day 3 after administration): 2 ± 0.5 g | cumulative food intake ration ([1]; 3 nmol/kg, 28 days after the administration): 58.2 g | cumulative food intake ration ([1]; 3 nmol/kg, within 5 days after the administration): 7.2 g | daily food intake ration ([1]; 10 nmol/kg sc, day 9 after administration): 2 ± 0.6 g | daily food intake ration ([1]; 10 nmol/kg sc, day 15 after administration): 3 ± 0.9 g | daily food intake ration ([1]; 10 nmol/kg sc, day 20 after administration): 2 ± 0.5 g | cumulative food intake ration ([1]; 10 nmol/kg, 28 days after the administration): 46.8 g | cumulative food intake ration ([1]; 10 nmol/kg, within 5 days after the administration): 3.9 g | daily food intake ration ([1]; 100 nmol/kg sc, day 15 after administration): 2 ± 0.4 g | daily food intake ration ([1]; 100 nmol/kg sc, day 18 after administration): 2 ± 0.4 g | cumulative food intake ration ([1]; 100 nmol/kg, 28 days after the administration): 36.7 g | cumulative food intake ration ([1]; 100 nmol/kg, within 5 days after the administration): 1.8 g | Concentration of fasting blood glucose ([2]; 10 nmol/kg sc, Day 0): 14.77 ± 1.30 mmol/L | Concentration of random blood glucose ([2]; 10 nmol/kg sc, Day 0): 20.42 ± 1.56 mmol/L | Concentration of fasting blood glucose ([2]; 10 nmol/kg sc, Day 7): 6.05 ± 0.42 mmol/L | Concentration of random blood glucose ([2]; 10 nmol/kg sc, Day 10): 20.66 ± 1.48 mmol/L | Concentration of fasting blood glucose ([2]; 10 nmol/kg sc, Day 14): 6.30 ± 0.46 mmol/L | Concentration of random blood glucose ([2]; 10 nmol/kg sc, Day 17): 18.91 ± 1.33 mmol/L | Concentration of fasting blood glucose ([2]; 10 nmol/kg sc, Day 21): 7.89 ± 0.81 mmol/L | Concentration of random blood glucose ([2]; 10 nmol/kg sc, Day 24): 21.17 ± 2.07 mmol/L | Concentration of fasting blood glucose ([2]; 10 nmol/kg sc, Day 28): 9.41 ± 0.97 mmol/L | Glycated hemoglobin ([2]; 10 nmol/kg sc, day 28): 4.71 ± 0.23 % | Concentration of fasting blood glucose ([2]; 30 nmol/kg sc, Day 0): 14.13 ± 1.32 mmol/L | Concentration of random blood glucose ([2]; 30 nmol/kg sc, Day 0): 16.73 ± 1.59 mmol/L | Concentration of fasting blood glucose ([2]; 30 nmol/kg sc, Day 7): 6.21 ± 0.26 mmol/L | Concentration of random blood glucose ([2]; 30 nmol/kg sc, Day 10): 15.88 ± 1.86 mmol/L | Concentration of fasting blood glucose ([2]; 30 nmol/kg sc, Day 14): 6.40 ± 0.57 mmol/L | Concentration of random blood glucose ([2]; 30 nmol/kg sc, Day 17): 17.30 ± 1.17 mmol/L | Concentration of fasting blood glucose ([2]; 30 nmol/kg sc, Day 21): 7.03 ± 0.52 mmol/L | Concentration of random blood glucose ([2]; 30 nmol/kg sc, Day 24): 17.43 ± 1.92 mmol/L | Concentration of fasting blood glucose ([2]; 30 nmol/kg sc, Day 28): 9.68 ± 1.03 mmol/L | Glycated hemoglobin ([2]; 30 nmol/kg sc, day 28): 4.53 ± 0.17 % | Concentration of fasting blood glucose ([2]; 100 nmol/kg sc, Day 0): 14.67 ± 1.46 mmol/L | Concentration of random blood glucose ([2]; 100 nmol/kg sc, Day 0): 9.11 ± 1.25 mmol/L | Concentration of fasting blood glucose ([2]; 100 nmol/kg sc, Day 7): 5.85 ± 0.33 mmol/L | Concentration of random blood glucose ([2]; 100 nmol/kg sc, Day 10): 12.34 ± 1.12 mmol/L | Concentration of fasting blood glucose ([2]; 100 nmol/kg sc, Day 14): 6.25 ± 0.32 mmol/L | Concentration of random blood glucose ([2]; 100 nmol/kg sc, Day 17): 11.89 ± 1.15 mmol/L | Concentration of fasting blood glucose ([2]; 100 nmol/kg sc, Day 21): 6.13 ± 0.19 mmol/L | Concentration of random blood glucose ([2]; 100 nmol/kg sc, Day 24): 11.51 ± 0.95 mmol/L | Concentration of fasting blood glucose ([2]; 100 nmol/kg sc, Day 28): 7.89 ± 0.41 mmol/L | Glycated hemoglobin ([2]; 100 nmol/kg sc, day 28, listed as 18 #): 3.78% | Glycated hemoglobin ([2]; 100 nmol/kg sc, day 28, listed as #18): 3.78 ± 0.13 % | rate of change in body weight ([3]; 3 nmol/kg sc, day 1 after administration): −5 ± 0.6% | rate of change in body weight ([3]; 3 nmol/kg sc, day 6 after administration): −10 ± 4.4 % | rate of change in body weight ([3]; 3 nmol/kg sc, day 7 after administration): −13 ± 5.3 % | viscera/brain ratio for fat mass, Epididymal fat ([3]; 3 nmol/kg sc): 254.6 ± 113.4 % | viscera/brain ratio for fat mass, Inguinal fat ([3]; 3 nmol/kg sc): 281.5 ± 140.1 % | viscera/brain ratio for fat mass, Mesenteric fat ([3]; 3 nmol/kg sc): 84.8 ± 41.3 % | viscera/brain ratio for fat mass, Perirenal fat ([3]; 3 nmol/kg sc): 159.2 ± 87.6 % | viscera/brain ratio for fat mass, Scapular fat ([3]; 3 nmol/kg sc): 48 ± 15.3% | viscera/brain ratio for fat mass, Subcutaneous fat ([3]; 3 nmol/kg sc): 120 ± 62 % | rate of change in body weight ([3]; 10 nmol/kg sc, day 6 after administration): −15 ± 5.3 % | rate of change in body weight ([3]; 10 nmol/kg sc, day 24 after administration): −26 ± 7.1 % | viscera/brain ratio for fat mass, Epididymal fat ([3]; 10 nmol/kg sc): 211.7 ± 80.7 % | viscera/brain ratio for fat mass, Inguinal fat ([3]; 10 nmol/kg sc): 194.4 ± 86.2 % | viscera/brain ratio for fat mass, Mesenteric fat ([3]; 10 nmol/kg sc): 53.3 ± 14.6 % | viscera/brain ratio for fat mass, Perirenal fat ([3]; 10 nmol/kg sc): 109.4 ± 57.1 % | viscera/brain ratio for fat mass, Scapular fat ([3]; 10 nmol/kg sc): 42.5 ± 17^ % | viscera/brain ratio for fat mass, Subcutaneous fat ([3]; 10 nmol/kg sc): 122 ± 73.2 % | rate of change in body weight ([3]; 100 nmol/kg sc, day 20 after administration): −39 ± 6.5 % | rate of change in body weight ([3]; 100 nmol/kg sc, day 23 after administration): −38 ± 5.9 % | viscera/brain ratio for fat mass, Epididymal fat ([3]; 100 nmol/kg sc): 102.9 ± 32.2 % | viscera/brain ratio for fat mass, Inguinal fat ([3]; 100 nmol/kg sc): 92 ± 34.5 % | viscera/brain ratio for fat mass, Mesenteric fat ([3]; 100 nmol/kg sc): 27.4 ± 11.1 % | viscera/brain ratio for fat mass, Perirenal fat ([3]; 100 nmol/kg sc): 46.6 ± 18.2 % | viscera/brain ratio for fat mass, Scapular fat ([3]; 100 nmol/kg sc): 32.3 ± 7% | viscera/brain ratio for fat mass, Subcutaneous fat ([3]; 100 nmol/kg sc): 57.1 ± 21.2 % | body weight reduced by ([3]; high-fat food-induced obese mice, 10 nmol/kg, day 27, text): more than 20.0%
